Several values for one entry are separate records, joined by “and”; a condition that tells them apart may be missing. Equal entries are not always repeated.
Test system: Arabidopsis stomatal development mutants (spch, mute, fama, er, erl1, erl2, hdg2, atml1, scrm, scrm2, scrm-D and suppressors)
Assay: Stomatal development bioassay in mutant seedlings, liquid culture
Assay type: in vivo
Conditions: 50 μM; for meristemoids density: single seedlings n=8 (Fig. 3c)
Protocol: Arabidopsis accession Columbia (Col-0) was used as wild-type. […] Their genotype and transcript reduction were confirmed. The presence of transgenes/mutant alleles were confirmed by genotyping. For liquid culture with Stomidazolone (AYSJ929, compound 3), the analogs (AYSJ1059 (compound 5) and AYSJ1061 (compound 6)), degraded compound lzx103 (compound 4), and SIM3* (compound 7), all compounds were dissolved in dimethyl sulfoxide (DMSO, Molecular biology grade, Fujifilm Wako, Japan 046-21981), Col-0 seeds were sown in 96-well plates (TL5003; True Line) containing 95 μL of 1/2 MS media containing 0.5% sucrose with rotary shaking at 140 rpm under continuous light at 22 °C. Five μL of compounds were dissolved in DMSO at 10 mM and diluted with liquid 1/2 MS media to 1 mM and added on 1-day-old seedlings (final concentration, 50 μM). Seedlings were incubated for 8 days, and at day 9 seedling abaxial cotyledons were observed through confocal microscopy. For liquid culture of scrm-D_S343 and scrm-D_S423, 1/2 MS liquid media without sucrose was used. For the solid culture, 0, 20, 50 or 100 μM Stomidazolone were solidified with low-melting agarose (5805S, PrimeGelTM Agarose LMT 1-20 K, TAKARA Bio). Briefly, 1/2 MS salt, 0.5% sucrose, and 0.8% low melting agarose were mixed in water and autoclaved. After cooling the medium at around 30 °C, Stomidazolone (500x, dissolved in DMSO) was added and poured into 90 mm petri dishes (Asnol Petri Dish JP φ90 x 15 mm, 3-1491-01, AS ONE). Col-0 seeds were sown on Stomidazolone-containing 1/2 MS agarose media and grown under continuous light for 9 days.
For confocal microscopy, cell peripheries of seedlings were visualized with propidium iodide (Sigma, P4170). Images were acquired using LSM800 or LSM700 (Zeiss) using a 20x lens. The GFP, YFP reporter and PI signals were detected with excitation at 488 nm and an emission filter of 410 to 546 nm, at 488 nm and an emission filter of 410 to 546 nm, and with excitation at 561 nm and 582–617 nm emission range, respectively. Raw data were collected with 1024 × 1024 pixel images. For qualitative image presentation, Adobe Photoshop CC was used to trim and uniformly adjust the contrast/brightness.
For quantitative analysis of the abaxial leaf epidermis, confocal images were taken on the days after germination as indicated in the Figure legends. Preparation of images was done as described previously[32],[70]. For counting epidermal cell types, stomatal density, stomatal precursor cells (meristemoids), total stomata-lineage cells (stomata and meristemoids) were calculated by counting cell types in an area of 0.4 mm^2 (0.63 mm × 0.63 mm) and plotted as per mm^2. A series of Z-stack confocal images was obtained to obtain images covering the epidermis and capturing GFP/YFP signal from the reporter lines. The area and the number of epidermal cells were quantified by using FIJI-ImageJ. Statistical analyses were performed using R ver. 4.0.2. Sample sizes (n) are indicated and defined in each legend. For the multiple sample comparison, 1-way ANOVA was performed followed by a post hoc Tukey HSD test. For the two-sample comparison, Student’s T-test was performed. Graphs were generated using R ggplot2 package. For all boxplots, each box represents IQR (interquartile range), in which top, middle line, and bottom indicating 75, 50, and 25 percentiles, respectively, and the bar representing maximum to minimal values. Each magenta dot represents jittered individual data point. The datapoints that go beyond the bar are outliers, which are indicated as black dots. If the data point is greater than Q3 + 1.5*IQR (above the third quartile is greater than 1.5 times of the interquartile range) or less than Q1 − 1.5*IQR, that data point is classified as outlier. The color of Boxplot graph was based on ColorBrewer.org. The value of n, the number of each experiment or samples, the means of error bars, and how statistical significance was defined are indicated in a relevant figure legend. […]

[1] = er erl1, single seedlings n=8 (Fig. 4f)
[2] = scrm-D_S343, single seedlings n=8 (Fig. 5n)

O=C1C(c2ccccc2)=NC(NS(=O)(=O)c2ccccc2)(c2ccccc2)N1S(=O)(=O)c1ccccc1 (stereo not shown) [Stomidazolone]
effect on epidermal phenotype (in words) (er (er-105)): the number of stomata drastically decreased and the meristemoids vastly increased | effect on epidermal phenotype (in words) (er erl1): did not reduce the number of stomata, although it increased the number of meristemoids | Stomata density [1]: 204 per mm2 and 275 per mm2 and 292 per mm2 | Total (stomata+meristemoid) density [1]: 382 per mm2 and 272 per mm2 and 360 per mm2 and 323 per mm2 and 292 per mm2 and 347 per mm2 and 369 per mm2 | effect on epidermal phenotype (in words) (er erl1 erl2): insensitive | Meristemoid density (er erl1 erl2, single seedlings n=8 (Fig. 4j, replotted 4k)): 0 per mm2 | effect on epidermal phenotype (in words) (er erl2): The number of arrested meristemoids is even more increased | effect on epidermal phenotype (in words) (fama): significantly reduced the number of fama tumors whereas increasing the number of arrested meristemoids | effect on epidermal phenotype (in words) (hdg2): increased the meristemoid numbers of hdg2 epidermis while the total numbers of stomata and meristemoids were unaffected | Total (stomata+meristemoid) density (hdg2 (hdg2-2), single seedlings n=8 (Fig. 4m)): 149 per mm2 and 112 per mm2 and 171 per mm2 and 93 per mm2 and 137 per mm2 and 107 per mm2 and 141 per mm2 | effect on epidermal phenotype (in words) (hdg2 atml1): hypersensitivity | Total (stomata+meristemoid) density (hdg2 atml1 (hdg2-2 atml1-3), single seedlings n=8 (Fig. 4o)): 92 per mm2 and 141 per mm2 and 156 per mm2 and 153 per mm2 and 112 per mm2 and 109 per mm2 | effect on epidermal phenotype (in words) (mute): not enhanced | meristemoids density (mute (mute-1)): 296 per 1 mm2 and 243 per 1 mm2 and 204 per 1 mm2 and 289 per 1 mm2 and 350 per 1 mm2 and 267 per 1 mm2 and 187 per 1 mm2 | effect on epidermal phenotype (in words) (scrm2-1): reduction of the number of stomata with meristemoid arrests | Stomatal index SI (%) (scrm2-1, single seedlings n=8 (Fig. 5f)): 25.2% and 23.5% and 22.4% and 18.0% and 27.0% and 24.1% and 26.7% and 15.5% | effect on epidermal phenotype (in words) (scrm (ice1-2)): severely reduced stomatal lineage initiation | effect on epidermal phenotype (in words) (scrm scrm2-1): no effects | Stomatal index SI (%) (scrm scrm2-1, single seedlings n=7 (Fig. 5h)): 0% | effect on epidermal phenotype (in words) (scrm-D): not affected | Stomatal index SI (%) (scrm-D, single seedlings n=8 (Fig. 5j)): 100.0% and 99.0% and 98.0% | SI (%) [2]: 10.3% and 14.9% and 8.1% and 11.9% and 12.8% and 12.5% and 9.6% and 12.1% | small cells index (%) [2]: 31.8% and 53.1% and 60.4% and 54.1% and 50.8% and 47.7% and 36.1% | effect on epidermal phenotype (in words) (scrm-D_S343 and scrm-D_S423): triggered excessive formation of arrested meristemoids | effect on epidermal phenotype (in words) (scrm-D_S343 scrm2-1 and scrm-D_S423 scrm2-1): insensitivity | SI (%) (scrm-D_S423, single seedlings n=8 (Fig. 5p)): 0.7% and 1.2% and 0.0% and 1.4% and 3.0% | effect on epidermal phenotype (in words) (spch): no effects | meristemoids density (spch (spch-3)): 0 per 1 mm2

Reference: paper PMC11500415, “Chemical inhibition of stomatal differentiation by perturbation of the master-regulatory bHLH heterodimer via an ACT-Like domain” (Nature Communications, 2024)
